Results reported in paper PMC7070898 (Clinical and Translational Science, 2019).

Experiment: Safety and tolerability
[1] = MAD 25 mg once daily 14 days, n = 9
[2] = MAD 75 mg once daily 14 days, n = 9
[3] = MAD 200 mg once daily 14 days, n = 9

With C=CC(=O)N1CCC(CNc2ncnc(N)c2-c2ccc(Oc3ccccc3)cc2)CC1 [evobrutinib] the “TEAE: Abdominal discomfort” value [1] was 1 (11.1) (1) n (%), (number of events), the “TEAE: Abdominal pain” value [1] was 0 (0.0) n (%), (number of events) and the “TEAE: Application site irritation” value [1] was 0 (0.0) n (%), (number of events). The “TEAE: Complex regional pain” value [1] was 1 (11.1) (1) n (%), (number of events), the “TEAE: Constipation” value [1] was 0 (0.0) n (%), (number of events) and the “TEAE: Dry throat” value [1] was 0 (0.0) n (%), (number of events). The “TEAE: Excoriation” value [1] was 1 (11.1) (1) n (%), (number of events), the “TEAE: Fatigue” value [1] was 0 (0.0) n (%), (number of events) and the “TEAE: Headache” value [1] was 1 (11.1) (1) n (%), (number of events). For the same compound, the “TEAE: Muscle spasms” value [1] was 0 (0.0) n (%), (number of events), the “TEAE: Muscle strain” value [1] was 1 (11.1) (1) n (%), (number of events) and the “TEAE: Nausea” value [1] was 0 (0.0) n (%), (number of events). For the same compound, the “TEAE: Overall total” value [1] was 3 (33.3) (6) n (%), (number of events), the “TEAE: Rhinorrhea” value [1] was 1 (11.1) (1) n (%), (number of events) and the “TEAE: Sneezing” value [1] was 0 (0.0) n (%), (number of events). The “TEAE: Toothache” value [1] was 0 (0.0) n (%), (number of events), the “TEAE: URTI” value [1] was 0 (0.0) n (%), (number of events) and the “TEAE: Abdominal discomfort” value [2] was 0 (0.0) n (%), (number of events). For the same compound, the “TEAE: Abdominal pain” value [2] was 1 (11.1) (2) n (%), (number of events), the “TEAE: Application site irritation” value [2] was 1 (11.1) (1) n (%), (number of events) and the “TEAE: Complex regional pain” value [2] was 0 (0.0) n (%), (number of events). The “TEAE: Constipation” value [2] was 1 (11.1) (1) n (%), (number of events), the “TEAE: Dry throat” value [2] was 1 (11.1) (1) n (%), (number of events) and the “TEAE: Excoriation” value [2] was 0 (0.0) n (%), (number of events). For the same compound, the “TEAE: Fatigue” value [2] was 2 (22.2) (2) n (%), (number of events), the “TEAE: Headache” value [2] was 2 (22.2) (2) n (%), (number of events) and the “TEAE: Muscle spasms” value [2] was 1 (11.1) (1) n (%), (number of events). For the same compound, the “TEAE: Muscle strain” value [2] was 0 (0.0) n (%), (number of events), the “TEAE: Nausea” value [2] was 1 (11.1) (2) n (%), (number of events) and the “TEAE: Overall total” value [2] was 7 (77.8) (14) n (%), (number of events). For the same compound, the “TEAE: Rhinorrhea” value [2] was 0 (0.0) n (%), (number of events), the “TEAE: Sneezing” value [2] was 1 (11.1) (1) n (%), (number of events) and the “TEAE: Toothache” value [2] was 0 (0.0) n (%), (number of events). The “TEAE: URTI” value [2] was 1 (11.1) (1) n (%), (number of events), the “TEAE: Abdominal discomfort” value [3] was 0 (0.0) n (%), (number of events) and the “TEAE: Abdominal pain” value [3] was 0 (0.0) n (%), (number of events). For the same compound, the “TEAE: Application site irritation” value [3] was 1 (11.1) (1) n (%), (number of events), the “TEAE: Complex regional pain” value [3] was 0 (0.0) n (%), (number of events) and the “TEAE: Constipation” value [3] was 0 (0.0) n (%), (number of events). For the same compound, the “TEAE: Dry throat” value [3] was 0 (0.0) n (%), (number of events), the “TEAE: Excoriation” value [3] was 0 (0.0) n (%), (number of events) and the “TEAE: Fatigue” value [3] was 0 (0.0) n (%), (number of events). For the same compound, the “TEAE: Headache” value [3] was 0 (0.0) n (%), (number of events), the “TEAE: Muscle spasms” value [3] was 0 (0.0) n (%), (number of events) and the “TEAE: Muscle strain” value [3] was 0 (0.0) n (%), (number of events). The “TEAE: Nausea” value [3] was 0 (0.0) n (%), (number of events), the “TEAE: Overall total” value [3] was 3 (33.3) (3) n (%), (number of events) and the “TEAE: Rhinorrhea” value [3] was 0 (0.0) n (%), (number of events). The “TEAE: Sneezing” value [3] was 0 (0.0) n (%), (number of events), the “TEAE: Toothache” value [3] was 1 (11.1) (1) n (%), (number of events) and the “TEAE: URTI” value [3] was 1 (11.1) (1) n (%), (number of events). The “TEAE: Abdominal discomfort” value (MAD pooled active, n = 27) was 1 (3.7) (1) n (%), (number of events), the “TEAE: Abdominal pain” value (MAD pooled active, n = 27) was 1 (3.7) (2) n (%), (number of events) and the “TEAE: Application site irritation” value (MAD pooled active, n = 27) was 2 (7.4) (2) n (%), (number of events). The “TEAE: Complex regional pain” value (MAD pooled active, n = 27) was 1 (3.7) (1) n (%), (number of events), the “TEAE: Constipation” value (MAD pooled active, n = 27) was 1 (3.7) (1) n (%), (number of events) and the “TEAE: Dry throat” value (MAD pooled active, n = 27) was 1 (3.7) (1) n (%), (number of events). The “TEAE: Excoriation” value (MAD pooled active, n = 27) was 1 (3.7) (1) n (%), (number of events), the “TEAE: Fatigue” value (MAD pooled active, n = 27) was 2 (7.4) (2) n (%), (number of events) and the “TEAE: Headache” value (MAD pooled active, n = 27) was 3 (11.1) (3) n (%), (number of events). For the same compound, the “TEAE: Muscle spasms” value (MAD pooled active, n = 27) was 1 (3.7) (1) n (%), (number of events), the “TEAE: Muscle strain” value (MAD pooled active, n = 27) was 1 (3.7) (1) n (%), (number of events) and the “TEAE: Nausea” value (MAD pooled active, n = 27) was 1 (3.7) (2) n (%), (number of events). The “TEAE: Overall total” value (MAD pooled active, n = 27) was 13 (48.1) (23) n (%), (number of events), the “TEAE: Rhinorrhea” value (MAD pooled active, n = 27) was 1 (3.7) (1) n (%), (number of events) and the “TEAE: Sneezing” value (MAD pooled active, n = 27) was 1 (3.7) (1) n (%), (number of events). For the same compound, the “TEAE: Toothache” value (MAD pooled active, n = 27) was 1 (3.7) (1) n (%), (number of events), the “TEAE: URTI” value (MAD pooled active, n = 27) was 2 (7.4) (2) n (%), (number of events) and the “TEAE: Abdominal pain” value (SAD 25 mg, n = 6) was 0 (0.0) n (%), (number of events). The “TEAE: Amylase increased” value (SAD 25 mg, n = 6) was 0 (0.0) n (%), (number of events), the “TEAE: Application site pruritus (due to ECG stickers)” value (SAD 25 mg, n = 6) was 0 (0.0) n (%), (number of events) and the “TEAE: Back pain” value (SAD 25 mg, n = 6) was 0 (0.0) n (%), (number of events). The “TEAE: Contact dermatitis” value (SAD 25 mg, n = 6) was 0 (0.0) n (%), (number of events), the “TEAE: Dizziness” value (SAD 25 mg, n = 6) was 0 (0.0) n (%), (number of events) and the “TEAE: Dry eye” value (SAD 25 mg, n = 6) was 0 (0.0) n (%), (number of events). The “TEAE: Dry mouth” value (SAD 25 mg, n = 6) was 0 (0.0) n (%), (number of events), the “TEAE: Dyspepsia” value (SAD 25 mg, n = 6) was 0 (0.0) n (%), (number of events) and the “TEAE: Excoriation” value (SAD 25 mg, n = 6) was 0 (0.0) n (%), (number of events). For the same compound, the “TEAE: Headache” value (SAD 25 mg, n = 6) was 0 (0.0) n (%), (number of events), the “TEAE: Lipase increased” value (SAD 25 mg, n = 6) was 0 (0.0) n (%), (number of events) and the “TEAE: Multiple injuries” value (SAD 25 mg, n = 6) was 0 (0.0) n (%), (number of events). For the same compound, the “TEAE: Nasal congestion” value (SAD 25 mg, n = 6) was 0 (0.0) n (%), (number of events), the “TEAE: Noncardiac chest pain” value (SAD 25 mg, n = 6) was 0 (0.0) n (%), (number of events) and the “TEAE: Odynophagia” value (SAD 25 mg, n = 6) was 0 (0.0) n (%), (number of events). For the same compound, the “TEAE: Overall total” value (SAD 25 mg, n = 6) was 0 (0.0) n (%), (number of events), the “TEAE: URTI” value (SAD 25 mg, n = 6) was 0 (0.0) n (%), (number of events) and the “TEAE: Abdominal pain” value (SAD 50 mg, n = 6) was 0 (0.0) n (%), (number of events). The “TEAE: Amylase increased” value (SAD 50 mg, n = 6) was 0 (0.0) n (%), (number of events), the “TEAE: Application site pruritus (due to ECG stickers)” value (SAD 50 mg, n = 6) was 0 (0.0) n (%), (number of events) and the “TEAE: Back pain” value (SAD 50 mg, n = 6) was 1 (16.7) (1) n (%), (number of events). The “TEAE: Contact dermatitis” value (SAD 50 mg, n = 6) was 2 (33.3) (2) n (%), (number of events), the “TEAE: Dizziness” value (SAD 50 mg, n = 6) was 0 (0.0) n (%), (number of events) and the “TEAE: Dry eye” value (SAD 50 mg, n = 6) was 0 (0.0) n (%), (number of events). The “TEAE: Dry mouth” value (SAD 50 mg, n = 6) was 0 (0.0) n (%), (number of events), the “TEAE: Dyspepsia” value (SAD 50 mg, n = 6) was 1 (16.7) (1) n (%), (number of events) and the “TEAE: Excoriation” value (SAD 50 mg, n = 6) was 0 (0.0) n (%), (number of events). For the same compound, the “TEAE: Headache” value (SAD 50 mg, n = 6) was 1 (16.7) (2) n (%), (number of events), the “TEAE: Lipase increased” value (SAD 50 mg, n = 6) was 0 (0.0) n (%), (number of events) and the “TEAE: Multiple injuries” value (SAD 50 mg, n = 6) was 0 (0.0) n (%), (number of events). The “TEAE: Nasal congestion” value (SAD 50 mg, n = 6) was 0 (0.0) n (%), (number of events), the “TEAE: Noncardiac chest pain” value (SAD 50 mg, n = 6) was 0 (0.0) n (%), (number of events) and the “TEAE: Odynophagia” value (SAD 50 mg, n = 6) was 0 (0.0) n (%), (number of events). The “TEAE: Overall total” value (SAD 50 mg, n = 6) was 3 (50.0) (6) n (%), (number of events) and the “TEAE: URTI” value (SAD 50 mg, n = 6) was 0 (0.0) n (%), (number of events).
